Assay results reported in PubChem BioAssay (NCI).
Values joined by “and” are separate entries in the source; they are usually repeats but may differ in a detail not shown here. Identical values can stand only once.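 How tested: cells in 96-well plates exposed to compound for 48 hours at five concentrations. GI50 marks 50% less growth. The concentration for full growth arrest is given as TGI.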 Where a SMILES comes first, the peptide text is derived from it. The star is where a group is joined. Boc = CC(C)(C)OC(=O)*; Bn = c1ccc(C*)cc1

Key:
Assay in all cases: NCI anticancer screen, dose series, 48 h
HOP-62 NSCLC = test system: HOP-62 NSCLC
RPMI-8226 leukemia = test system: RPMI-8226 leukemia
SN12C renal = test system: SN12C renal
DLD-1 colon = test system: DLD-1 colon
KM20L2 colon = test system: KM20L2 colon
LXFL 529 NSCLC = test system: LXFL 529 NSCLC
SNB-78 CNS = test system: SNB-78 CNS
DMS 273 small cell lung = test system: DMS 273 small cell lung
M19-MEL melanoma = test system: M19-MEL melanoma
XF 498 CNS = test system: XF 498 CNS
HOP-18 NSCLC = test system: HOP-18 NSCLC
DMS 114 small cell lung = test system: DMS 114 small cell lung

Structure (SMILES) | TGI (HOP-62 NSCLC) | TGI (RPMI-8226 leukemia) | TGI (SN12C renal) | further results
C/C=C\C(CC(=O)OC)CC(=O)N(CCC1CN(S(=O)(=O)C(F)(F)F)c2ccccc21)Cc1ccc(OC)cc1OC (stereo unspecified) | > 100 µM | > 100 µM | > 100 µM | –
CN1CC2=C(NC(=S)NC2c2ccccc2Cl)/C(=C/c2ccccc2Cl)C1 (stereo unspecified) | > 100 µM | – | > 100 µM | –
CC1(C)CCCCCCCCCC2CC2CCC(C)(C)C1=O (stereo unspecified) | 46 µM | 75.9 µM | 35.7 µM | –
O=C(Nc1cccc(C(=O)NCCCO)c1)/C(=C/c1ccccc1)NC(=O)c1ccccc1 | > 100 µM | > 100 µM | > 100 µM | –
CNC(=O)C(CC(C)C)NC(=O)C(C)NC(=O)C(Cc1ccc(OCc2ccccc2)cc1)NC(=O)C(COCc1ccccc1)NC(=O)OC(C)(C)C (stereo unspecified) (Boc-S(Bn)Y(Bn)AL-NHMe; configuration not given here) | > 53.2 µM and 38.1 µM | 64.4 µM and 27 µM | > 86.4 µM and 42.1 µM | GI50 (RPMI-8226 leukemia): 24.8 µM and 4.27 µM; GI50 (SN12C renal): > 52.3 µM and 18.8 µM
O=[N+]([O-])C=C1c2ccccc2-c2ccccc21 | 31.3 µM | 5.5 µM | 35.7 µM | TGI (DLD-1 colon): 7.71 µM; TGI (KM20L2 colon): 34.5 µM; TGI (LXFL 529 NSCLC): 28.2 µM; TGI (SNB-78 CNS): 31.1 µM
COc1cc(CNc2c3ccccc3nc3ccccc23)cc(OC)c1OC | 11.7 µM | > 27.3 µM | 15.3 µM | –
CCCCC1(O)CC2CC1C(C)C2(C)C (stereo unspecified) | > 100 µM | > 100 µM | > 100 µM | –
O=C1CC2CC(CC3(CO3)C2)C1F (stereo unspecified) | > 100 µM | > 100 µM | > 100 µM | –
CCC1CCC2c3c([nH]c4ccc(C)cc34)C3C(=O)N(N(C)C)C(=O)C3C2C1 (stereo unspecified) | > 100 µM | > 88.3 µM | > 100 µM | –
O=C(NCCCN(CCCCN(CCCNC(=O)c1cc(S(=O)(=O)O)cc(O)c1O)C(=O)c1cc(S(=O)(=O)O)cc(O)c1O)C(=O)c1cc(S(=O)(=O)O)cc(O)c1O)c1cc(S(=O)(=O)O)cc(O)c1O | – | – | > 100 µM | –
COC(=O)/N=[N+](\[O-])C(c1ccccc1)c1ccccc1 | – | > 100 µM | > 100 µM | –
CC(=O)Nc1cc2nc3n(c2cc1C)CCC3OC(C)=O (stereo unspecified) | – | > 100 µM | > 100 µM | –
O=c1[nH]nc(Cc2ccccc2)n1/N=C/c1ccc([N+](=O)[O-])cc1 | > 100 µM | – | > 100 µM | –
O=C1/C(=C/c2ccc(O)c(O)c2)CC/C1=C\c1ccc(O)c(O)c1 | 39 µM | 76.3 µM | > 79.5 µM | –
CC(C)C(Sc1nc(-c2ccccc2)c(-c2ccccc2)[nH]1)c1n[nH]c(=S)n1-c1ccccc1 (stereo unspecified) | > 100 µM | 76 µM | > 100 µM | TGI (DLD-1 colon): > 100 µM; TGI (DMS 273 small cell lung): > 100 µM; TGI (KM20L2 colon): 62.8 µM; TGI (LXFL 529 NSCLC): 54.4 µM; TGI (M19-MEL melanoma): 35.5 µM; TGI (SNB-78 CNS): > 100 µM; TGI (XF 498 CNS): 80.3 µM
COC(=O)C(c1ccc(OC)cc1)N1C(=O)[C@@H](NC(=O)c2ccccc2)[C@H]1[C@@H](C)O (stereo partly specified) | > 100 µM | – | > 100 µM | TGI (DLD-1 colon): > 100 µM; TGI (DMS 273 small cell lung): > 100 µM; TGI (KM20L2 colon): > 100 µM; TGI (LXFL 529 NSCLC): > 100 µM; TGI (M19-MEL melanoma): > 100 µM; TGI (SNB-78 CNS): > 100 µM; TGI (XF 498 CNS): > 100 µM
CN1CCN(Cc2nc3c(s2)CCc2sccc2-3)CC1 | > 100 µM | > 100 µM | > 100 µM | –
CCOC(=O)N/N=C(\CC)OCC | > 100 µM | – | > 100 µM | –
CCOC(=O)C1(N)CC1 | > 100 µM | > 100 µM | > 100 µM | –

Structure (SMILES) | TGI (HOP-62 NSCLC) | TGI (RPMI-8226 leukemia) | TGI (SN12C renal) | further results
CS(=O)(=O)O[C@H]1[C@H](O)c2ccccc2[C@@H]1N=[N+]=[N-] | > 100 µM | > 100 µM | > 100 µM | –
O=C(CN=C(CN(c1ccccc1)c1ccccc1)Oc1ccc(Cl)cc1Cl)n1ccnc1 | > 100 µM | > 100 µM | > 100 µM | –
Cc1ccc(C(=O)N/N=C(\N=Nc2ccccc2Cl)c2ccc(N(C)C)cc2)cc1 | – | > 100 µM | > 100 µM | –
CCOc1cccc(-c2cc(=O)c3cc4c(cc3[nH]2)OCO4)c1 | > 100 µM | > 100 µM | 5.38 µM | –
COc1cc(C2OC[C@@H]3C(=O)OC[C@H]23)cc(O)c1OC (stereo partly specified) | – | > 100 µM | > 100 µM | –
C(#CC1(Nc2ccccc2)CCN(Cc2ccccc2)CC1)C1(Nc2ccccc2)CCN(Cc2ccccc2)CC1 | 40.7 µM | 4.88 µM | > 56.2 µM | –
C#CCOCn1cc(C)c(=O)[nH]c1=O | > 100 µM | > 100 µM | > 100 µM | –
CCOC(=O)C(NC(=O)CC)(Nc1ccc(F)cc1F)C(F)(F)F (stereo unspecified) | – | > 100 µM | > 100 µM | –
COC(=O)[C@]12CSC[C@H]1C[C@H](c1cccc3ccccc13)N2 | > 100 µM | > 100 µM | > 100 µM | –
CCCCCCCCCCOCCOCCOCCOCCCCC(O)CCCCCCCC1=C[C@H](C)OC1=O (stereo partly specified) | – | 24 µM | 29.9 µM | –
O=c1[nH]c2c(c(=O)[nH]1)C(c1ccc([N+](=O)[O-])cc1)c1c([nH]c(=O)[nH]c1=O)O2 | > 100 µM | 75 µM | > 100 µM | –
Cc1cn(C2CCN(CC3COC(C)(C)O3)O2)c(=O)[nH]c1=O (stereo unspecified) | > 100 µM | > 100 µM | > 100 µM | –
CCCC(=O)OC[n+]1ccc(-c2c(COC(=O)NC(C)C)c(COC(=O)NC(C)C)c3n2CCC3)cc1 | > 100 µM | > 100 µM | > 100 µM | –
CCNc1nnc(-c2ccccc2Nc2ccccc2-c2nnc(NCC)s2)s1 | > 100 µM | 73.4 µM | > 49.7 µM | –
O=C1[C@@H](O)[C@@H]2CCCC[C@@]23CCCN13 | > 100 µM | > 100 µM | > 100 µM | –
CN(C)C(=NC#N)N(Cc1ccccc1)Cc1ccccc1 | > 100 µM | > 100 µM | > 100 µM | TGI (DLD-1 colon): > 100 µM; TGI (DMS 273 small cell lung): > 100 µM; TGI (HOP-18 NSCLC): > 100 µM; TGI (KM20L2 colon): > 100 µM; TGI (LXFL 529 NSCLC): > 100 µM; TGI (M19-MEL melanoma): > 100 µM; TGI (SNB-78 CNS): > 100 µM
COc1ccc(-c2nc3c(C(=O)NCCN(C)C)cccc3c3ccccc23)cc1 | 13.3 µM | – | 16.9 µM | –
CC1=N[C@@](C)(C2CC3C=CC2C3=O)COC1=O (stereo partly specified) | > 100 µM | – | > 100 µM | –
OCC1CCCC1O (stereo unspecified) | – | > 100 µM | > 100 µM | –
C=CC1(c2ccc3ccccc3c2)OCC(CC)O1 (stereo unspecified) | 2.48 µM | > 100 µM | > 100 µM | –

Structure (SMILES) | TGI (HOP-62 NSCLC) | TGI (RPMI-8226 leukemia) | TGI (SN12C renal) | further results
C[N+]12C=CC=C1C(N1CCCC1)c1scc(-c3ccc(F)cc3)c12 (stereo unspecified) | > 100 µM | > 100 µM | > 100 µM | –
CN(C)c1ccc(/C=C(\NC(=O)c2ccccc2)C(=O)Nc2cccc(C(=O)NCCCO)c2)cc1 | > 100 µM | > 100 µM | > 100 µM | –
Cc1ccccc1Nc1nc(NNC(=O)Cc2ccccc2)nc(NNC(=O)c2ccncc2)n1 | > 10 µM | > 10 µM | > 10 µM | –
CC(=O)n1[nH]c(=O)n(-c2ccccc2)c1=O | > 100 µM | > 100 µM | > 100 µM | –
Cc1cc(S(=O)(=O)NC(=NCCc2ccccc2)NN)c(S)cc1Cl | – | > 100 µM | > 100 µM | –
COc1ccc2c(c1OC)C(=O)N/C2=C\c1c(CCN(C)C)cc2c(c1OC)OCO2 | > 100 µM | > 100 µM | > 100 µM | –
CCOC(=O)c1sc2nc1CSc1sc(=S)sc1SCc1nc(sc1C(=O)OCC)-c1nc(c(C(=O)OCC)s1)CSc1sc(=S)sc1SCc1nc-2sc1C(=O)OCC | > 10 µM | > 10 µM | > 10 µM | –
CC(=O)Oc1ccc2cc(-c3ccc(OC(C)=O)c(OC(C)=O)c3)c(=O)oc2c1 | > 100 µM | > 100 µM | > 100 µM | –
O=[N+]([O-])C(/C=C(\Cl)[N+](=O)[O-])=C(N1CCCCC1)N1CCCCC1 | > 100 µM | > 100 µM | > 100 µM | –
O=C(Cc1nc2ccc([N+](=O)[O-])cc2[nH]c1=O)C(=O)Nc1ccccc1[N+](=O)[O-] | – | – | – | TGI (DLD-1 colon): > 100 µM; TGI (DMS 114 small cell lung): > 100 µM; TGI (DMS 273 small cell lung): > 100 µM; TGI (KM20L2 colon): > 100 µM; TGI (LXFL 529 NSCLC): > 100 µM; TGI (M19-MEL melanoma): > 100 µM
CC(C)(C)n1c(=O)n2n(c1=O)C1c3cccc4cccc(c34)C2C2c3cccc4cccc(c34)C1n1c(=O)n(C(C)(C)C)c(=O)n12 | > 100 µM | > 100 µM | > 100 µM | –
CC1=CC(=O)N(n2c(Cc3ccc(Cl)cc3)n[nH]c2=O)C1=O | – | 53.2 µM | > 100 µM | –
Cc1cc2c(cc1Cl)SC(NNC1=NCCN1)=NS2(=O)=O | > 10 µM | > 10 µM | > 10 µM | –
CC1=CC(=O)N(n2c(-c3ccccc3)n[nH]c2=O)C1=O | > 100 µM | > 100 µM | > 100 µM | –
O=S(=O)(CCC[C@H]1[C@@H](CCOCc2ccccc2)C2CCCN1O2)c1ccccc1 (stereo partly specified) | > 100 µM | – | > 100 µM | –
Cc1cccc(C)c1N=Nc1ccc(O)c(CN(C)C)c1 | > 100 µM | > 100 µM | > 100 µM | –
CC(C)(C)[Si](C)(C)OCC1OC(n2ccc(=O)[nH]c2=O)C(O[Si](C)(C)C(C)(C)C)[C@]12O[C@@H]2CO (stereo partly specified) | 30.2 µM | > 100 µM | 36.3 µM | –
O=C1C=C(c2ccccc2)O/C1=C\C(=O)c1ccc(Cl)cc1 | > 100 µM | > 100 µM | 11.5 µM | –
